{
  "source": "patent US20180338897A1",
  "about": "“ORAL COMPOSITIONS FOR REDUCING DENTAL STAINS” (New York University, priority 2017, published 2018)",
  "key": {"[1]": {"system": "yeast (Saccharomyces cerevisiae)", "experiment": "Inhibition of yeast growth when prepared with dextrose-agar plates", "assay_type": "cell-based", "from_the_text": "The compounds of the present disclosure can reduce stains from the surfaces of teeth. The present compounds may also have anti-microbial activity. […] Thus, the compounds and compositions of the present disclosure may be used for reduction of teeth stains and/or as antimicrobials."}, "[2]": {"experiment": "Destaining of boiling beads stained with tannic acid and iron(III) chloride (Example 2)", "settings": "for Destaining: Experiment #1, 10 mL 0.1M solution on stained boiling beads; for Removal of stains (conclusion): Experiments #1 and #2, comparison with EDTA", "procedure": "To simulate the effects of staining caused by coffee and tea, tannic acid and iron(III) chloride solutions were prepared.\nTo prepare the tannic acid solution, solid tannic acid was used. 0.1M FeCl3.6H2O and added to 100 mL of distilled water. 0.1 M solutions of MOPS buffer was prepared. Then 0.1M solutions of EDTA in distilled water, C-2 in MOPS, C-6 in MOPS, and deferiprone in MOPS, were prepared. For a tooth like structure, boiling beads made from synthetic silicate were used.\nMethods were as follows: Experiment #1: Comparison of EDTA, C-2, and deferiprone destaining: The procedure was broken down into 2 phases: staining and destaining. In the staining phase, 7 beads were added to each of the 12 vials. 3 vials were labeled control, 3 were labeled EDTA, 3 were labeled C-2, and 3 were labeled Deferiprone. 0.1 mL of the tannic acid and iron(III) chloride were pipetted onto the boiling beads in the vials. After mixing, 9.8 mL of 0.1 M, pH 7 MOPS was added. The vials were left to stand for a week at room temperature to complete the staining. For the destaining phase, the liquid in each vial was discarded and the beads were rinsed with distilled water 3 times. Then the solutions were added to the vials according to Table 1, swirled and left for the destaining phase.\nExperiment #2: Comparison of deferiprone, C-2, and C-6 destaining: The same procedure was followed for Experiment 2 except EDTA was replaced with C-6 solution."}, "[3]": {"system": "yeast", "experiment": "Disk diffusion on YPD agar plates with yeast cultures", "assay_type": "cell-based, Saccharomyces cerevisiae", "settings": "plates incubated at 30° C.", "procedure": "(§1) The following materials were used: peptone, dextrose/glucose, marmite/yeast extract, agar, 0.1 M EDTA in MOPS solution, 0.1 M C-2 in MOPS solution, 0.1 M C-6 in MOPS solution, and […] Deferiprone in MOPS solution, and water.\nPlate media was prepared containing 2% dextrose, 2% peptone, 0.36 g of yeast extract, and 1.5% agar in 1 L of water. The mixture was heated to dissolve the ingredients, and then autoclaved. 10 mL of the media was added to petri dishes to prepare plates.\n(§2) The yeast culture was prepared by adding dry baker's yeast to warm water and streaked on the media plates. Cultures were allowed to grow for 16-24 hours.\nDisks to which C-2, C-6, EDTA, or Deferiprone were added were added to petri dishes containing yeast cultures. The plates were incubated at 30° C. The effect on yeast growth was visualized and measured over time. The zone sizes were measured to the nearest millimeter using a ruler or caliper, including the diameter of the disk in the measurement. The measurements were rounded up to the nearest millimeter."}, "[4]": {"system": "yeast", "experiment": "Yeast growth curve in liquid YPD media, absorbance at 400 nm", "assay_type": "cell-based, Saccharomyces cerevisiae", "settings": "for Final absorbance / Initial absorbance: 400 nm; for Final absorbance: after 24 hr; for Effect on yeast growth: growth curve over 24 hr, FIG. 8; for Initial absorbance: start of growth curve", "procedure": "as §1, §2\nThe growth curve experiment were carried out by measuring the inhibition of yeast culture in the presence of EDTA, C-2, C-6, and Deferiprone over time via absorbance at 400 nm (see FIG. 8).\nThe growth curve was used to measure the rate of growth of yeast over an 8 hour period with a final measurement after 24 hours. No growth is seen in the presence of EDTA. C-2, C-6, and Deferiprone show different levels of effectiveness (see FIG. 8)."}, "[5]": {"experiment": "Dissolution of deferiprone in distilled water", "assay_type": "physicochemical", "settings": "0.1 M in distilled water; room temperature; magnetic bar", "procedure": "(§3) 0.1 M of Deferiprone solution was made by mixing 1.3957 g and 100 mL of distilled water into a volumetric flask. […] The tables below (Table 5 and Table 6) summarizes the contents of the vials used in this part of the experiment."}, "[6]": {"experiment": "Destaining of stained beads and sand white quartz (Example 3)", "settings": "for Relative destaining effectiveness: comparison of C11, EDTA and Deferiprone", "procedure": "Tannic acid and iron chloride solutions were prepared as in Example 2. In order to simulate a tooth like structure, boiling beads made from a synthetic silicate (Techniservice) and white quartz sand were used. Four vials were prepared with the following solutions and solids (Table 3).\n0.1 mL of the tannic acid and iron(III) chloride were pipetted into each vial. They were mixed on a vortex for 10 seconds. Then, 9.8 mL of 0.1 M, pH 7.4 MOPS was added to each vial to adjust the pH to a neutral level. MOPS was used to mimic the pH of saliva. The contents were mixed again. […] The vials were left to stand for a week at room temperature. The following table (Table 4) summarizes the components added to the tooth-like solids.\nThe solids in the vials were washed with approximately 10 mL of MOPS. This step was to simulate a wash of the “tooth” like structure with a “saliva” like buffer. The vials were left for a week to allow time for unstained areas of the beads to stain.\nAfter the structures were stained, experiments were carried out to test if the stains could be removed. Approximately 5 mL of C11 (1-(11′-Carboxydecyl)-3-Hydroxy-2-Methyl-4-Pyridinone) solution was pipetted into Vials #1 and #3. Vials #2 and #4 served as controls. The contents of the vials were then mixed by vortexing. The vials were left to de-stain for a week. After a week, the liquid was drained from the vials and a fresh 5 mL of C11 was pipetted. Vials were left to de-stain for another week.\nEDTA was prepared as follows. 100 mM of EDTA was made by adding 9.164 g to 250 mL of deionized water. The solution was stirred for 10 minutes, then placed on a heater.\nThree new vials were filled with 2.2346 g, 2.0195 g, 2.2600 g of beads followed by the salt (0.1 mL), then the tannic acid (0.1 mL), and finally the MOPS. […] Three other vials were filled with 2.115 g, 2.009 g, 2.115 g of sand white quartz and the solutions were added in sequence. […] The solutions were left to continue to stain for a week. After a week, all the vials were rinsed with 10 mL of MOPS. Supernatant was removed by using filter paper. 10 mL of MOPS was then added and the contents were stirred then left to sit for a week.\n1 mL of the EDTA was pipetted into each vial. The resulting concentration was 0.01 M of EDTA in each vial. Vials were then mixed to ensure proper contact with the MOPS and EDTA molecules. Vials were left to sit for a week.\nTwo more pairs of vials (4th and 5th pairs) were prepared—one with the beads and the other with the sand. MOPS solution was added, but not EDTA. […] Two more pairs of vials (6th and 7th pairs) were prepared, again, one with beads and the other with sand. The purpose of these controls was to test if the destaining process could be accelerated. The EDTA concentration was increased from 0.01 M to 0.1 M and 10 mL of it was subsequently added to the vials along with 10 mL of MOPS.\nas §3\nThese vials were left to stand for a week. After the week the vials were rinsed with distilled water until the liquid that the beads/sand were suspended in were clear.\nThe next set of experiments was carried out to determine how quickly the compositions were able to remove the stains.\nBeads and sand solutions were rinsed with 10 mL of distilled water. […] The solutions were prepared as follows: (Table 11)."}},
  "data": [
    {"smiles": "Cc1c(O)c(=O)ccn1CC(=O)O", "note": "[C-2, 1-Carboxymethyl-3-Hydroxy-2-Methyl-Pyrid-4-one]", "values": [
      {"measurement": "Growth of yeast", "setting": "[1]; 0.001 M", "result": "inhibited the growth of yeast"},
      {"measurement": "Destaining", "setting": "[2]", "result": "Destaining was immediately noted"},
      {"measurement": "Removal of stains (conclusion)", "setting": "[2]", "result": "effective in removal of stains and act to remove stains faster than EDTA"},
      {"measurement": "Zone diameter (including the disk)", "setting": "[3]", "result": 1.55, "unit": "cm"},
      {"measurement": "Final absorbance", "setting": "[4]", "result": 1.761},
      {"measurement": "Effect on yeast growth", "setting": "[4]", "result": "effective, although the effect was less than EDTA and Deferiprone"}
    ]},
    {"smiles": "Cc1c(O)c(=O)ccn1CCCCCC(=O)O", "note": "[C-6, 1-(6′-Carboxypentyl)-3-Hydroxy-2-Methyl-4-Pyridinone]", "values": [
      {"measurement": "Growth of yeast", "setting": "[1]; 0.001 M", "result": "inhibited the growth of yeast"},
      {"measurement": "Removal of stains (conclusion)", "setting": "[2]", "result": "effective in removal of stains and act to remove stains faster than EDTA"},
      {"measurement": "Zone diameter (including the disk)", "setting": "[3]", "result": 1.45, "unit": "cm"},
      {"measurement": "Final absorbance", "setting": "[4]", "result": 1.840},
      {"measurement": "Effect on yeast growth", "setting": "[4]", "result": "effective, although the effect was less than EDTA and Deferiprone"}
    ]},
    {"smiles": "Cc1c(O)c(=O)ccn1C", "note": "[Deferiprone, 3-hydroxy-1,2-dimethylpyridin-4(1H)-one]", "values": [
      {"measurement": "Solubility", "setting": "[5]", "result": "slow solubility was observed"},
      {"measurement": "Growth of yeast", "setting": "[1]; 0.003 M", "result": "inhibited the growth of yeast"},
      {"measurement": "Relative destaining effectiveness", "setting": "[6]", "result": "most effective"},
      {"measurement": "Duration of effective destaining", "setting": "[6]; speed experiment, all Deferiprone dilutions (10 mL, 1 mL, 0.1 mL, 0.01 mL of 0.1M)", "result": "For about an hour the destaining for all the vials except the controls continued to be effective"},
      {"measurement": "Stain removal immediately after addition", "setting": "[6]; speed experiment, vials A3 and B3, 10 mL of 0.1M Deferiprone", "result": "the stains were removed"},
      {"measurement": "Stained removed?", "setting": "[6]; vial A2: beads, 10 mL of 0.1M deferiprone, after a week", "result": "Yes"},
      {"measurement": "Stained removed?", "setting": "[6]; vial A3: beads, 1 mL of 0.1M deferiprone & 9 mL of distilled water, after a week", "result": "Yes"},
      {"measurement": "Stained removed?", "setting": "[6]; vial B2: sand white quartz, 10 mL of 0.1M deferiprone, after a week", "result": "Yes"},
      {"measurement": "Stained removed?", "setting": "[6]; vial B3: sand white quartz, 1 mL of 0.1M deferiprone & 9 mL of distilled water, after a week", "result": "Yes"},
      {"measurement": "Discoloration of the solution after addition", "setting": "[6]; vials A2 and B2 (beads, sand), 10 mL of 0.1M deferiprone", "result": "immediate discoloration"},
      {"measurement": "Discoloration of the solution after addition", "setting": "[6]; vials A3 and B3 (beads, sand), 1 mL of 0.1M deferiprone & 9 mL of distilled water", "result": "relatively slower discoloration"},
      {"measurement": "Destaining", "setting": "[2]", "result": "Destaining was immediately noted"},
      {"measurement": "Removal of stains (conclusion)", "setting": "[2]", "result": "effective in removal of stains and act to remove stains faster than EDTA"},
      {"measurement": "Final absorbance", "setting": "[4]", "result": 0.762},
      {"measurement": "Initial absorbance", "setting": "[4]", "result": 0.389}
    ]},
    {"smiles": "O=C(O)CN(CCN(CC(=O)O)CC(=O)O)CC(=O)O", "note": "[EDTA, ethylenediaminetetraacetic acid]", "values": [
      {"measurement": "Destaining of beads", "setting": "[6]; 0.01 M EDTA in MOPS, beads, after a week", "result": "partially destained"},
      {"measurement": "Destaining of sand (colour of solution)", "setting": "[6]; 0.01 M EDTA in MOPS, white quartz sand, after a week", "result": "solutions were clear"},
      {"measurement": "Bleaching of beads and sand", "setting": "[6]; EDTA 0.01 M to 0.1 M, beads and sand, after over a month", "result": "most of the beads and sand were bleached"},
      {"measurement": "Relative destaining effectiveness", "setting": "[6]", "result": "followed by EDTA"},
      {"measurement": "Destaining", "setting": "[2]", "result": "slight difference after 15 minutes"},
      {"measurement": "Final absorbance", "setting": "[4]", "result": 0.481},
      {"measurement": "Initial absorbance", "setting": "[4]", "result": 0.375},
      {"measurement": "Effect on yeast growth", "setting": "[4]", "result": "No growth"}
    ]}
  ]
}
